Here are results for six compounds from patent publication US4151283A, “6-Methyl-and 1,6-dimethyl-8β-carbobenzyloxy-aminomethyl-10α-ergoline as inhibitors of prolactin secretion” (Societa' Farmaceutici Italia S.p.A., priority 1977, dated 1979).

Molecules are shown by their SMILES.

Series [1] relates to prolactin (PRL) release. Particulars: cited from earlier work.
The test system of series [2] is nidation (implantation sites). As to the kind of experiment: Nidation inhibition in rats (anti-nidation activity). Particulars: Rattus norvegicus, methane-sulphonic salt, given on 3rd day, approximate (.congruent.). The class given is in vivo, rat (Sprague-Dowley strain). The procedure: Adult female rats, of the Sprague-Dowley strain, in proestrus were mated with fertile males and their vaginal smears were examined the next morning.
The presence of spermatozoa was considered evidence of impregnation and onset of pregnancy (day 1).
The compounds were administered orally or intraperitoneally as methane-sulphonic salts to groups of six to eight rats on the 3rd day.
On the 14th day the animals were sacrificed and the uterus was examined for the presence of implantation sites.
The absence of implantation sites was the criterion of activity.
Several doses were tested for the ED50 evaluation.

Series [3] has as its system lactation. As to the kind of experiment: Lactation inhibition in rats (anti-lactation activity). The class given is in vivo. Particulars: Rattus norvegicus, po, methane-sulfonic salt, 6th and 7th days, approximate (.congruent.); read-out: ED50, lactation inhibition (50% reduction of gain in weight of the litters). The method, then: Adult pregnant female rats were individually caged about 6 days before parturition. The day after parturition (day 1), the number of pups was adjusted to eight. The gain in weight of the litters was measured daily.
The test compounds as methane-sulfonic salts were administered orally to groups of eight mother rats on the 6th and 7th days immediately after the weighing of the litters. The control mothers were treated with the vehicle alone.
The percentage of lactation inhibition was calculated from the mean gain in weight of the litters on the 7th and 8th days in comparison with the results for the 5th and 6th days.
No lactation inhibition was present on the 7th and 8th days in the vehicle-treated (control) group.
The doses capable of reducing to 50% the gain in weight of the litters (ED50) are reported below in Table II.

A further series in a line: Emetic activity in dogs. The format is in vivo, dog (male beagle). Conditions: dog, in vivo, methane-sulphonic salt, approximate (.congruent.), read-out: ED50, emetic activity; for TD50 at 2 h: iv, observed 2 hours; for TD50 at 6 h: po, observed 6 hours. The procedure:
(§1) The emetic activity of the compounds was examined by intravenous and oral administration to male beagle dogs weighing 15-20 kg. The compounds were administered as the methane-sulphonic salts. […] Five to six animals per dose were employed for the ED50 evaluation.

Series [4] has as its system nidation (implantation sites). Particulars: in rats, literature (Fluckiger and Wagner 1968), in words; cited from earlier work.
Series [5] relates to lactation. Particulars: in rats, literature (Fluckiger and Wagner 1968), in words; cited from earlier work.
In series [6] the test system is puerperal lactation. Conditions: comparison drug, no own test described; cited from earlier work.
Another series relates to prolactin. Particulars: literature (Brooks and Welsch 1974), in words; cited from earlier work.
The subject of series [7] is prolactin (PRL) release. Conditions: cited from earlier work. This is another data set of the same source.
For a further series, the system named is emesis. As to the kind of experiment: Emetic activity in dogs. The format is in vivo, dog (male beagle). Conditions: dogs, both routes of administration (Table III), in words. The method, then: as §1
Series [8] concerns puerperal lactation. As to the kind of experiment: Inhibition of puerperal lactation in women (clinical evaluation). The class given is in vivo, human (puerperal women). The method, then:
The invention concerns a novel method of inhibiting lactation in puerperal women by administering metergoline.
Metergoline was administered at a dose of 8 mg/day (4 mg at 0.800 and 4 mg at 2000) to these women: 10 women were treated with a placebo.

Consider `NCCc1c[nH]c2ccc(O)cc12` [serotonin (5HT), 5-hydroxytryptamine], for which the “effect on PRL release in animals” value with prolactin (PRL) release [1] is given as “stimulates prolactin (PRL) release”.
A word on the ED50: it is the midpoint of the dose-response relation. For `CC(C)C[C@H]1C(=O)N2CCC[C@H]2[C@]2(O)O[C@](NC(=O)[C@@H]3C=C4c5cccc6[nH]c(Br)c(c56)C[C@H]4N(C)C3)(C(C)C)C(=O)N12` [Bromocriptine, 2-Br-α-ergocriptine, reference compound], the ED50 in series [2] (ip) lay in the range of 16 to 32 mg/kg; in [2] (po) it was 8 to 16 mg/kg; with lactation [3], 8 to 16 mg/kg. In addition, in the series “Emetic activity in dogs”, the TD50 at 2 h was around 0.007 mg/kg. Also, the TD50 at 6 h in “Emetic activity in dogs” was below 0.03 mg/kg. For the same compound, in [4], the anti-nidation activity result is “well known both for its anti-nidation and anti-lactation activity in rats”. In the series with lactation [5], the anti-lactation activity result is “well known both for its anti-nidation and anti-lactation activity in rats”. Moreover, the treatment period required in the series on puerperal lactation [6] is given as 14 days. Besides, the anti-prolactin activity entry in the series on prolactin was “anti-prolactin activity”.
`N[C@@H](Cc1c[nH]c2ccc(O)cc12)C(=O)O` [5 hydroxytryptophan]: in the series on prolactin (PRL) release [7], the “effect on PRL release in man” value is recorded as “stimulates PRL release”.
Take `CC[C@@H](CO)NC(=O)[C@@H]1C=C2c3cccc4c3c(cn4C)C[C@H]2N(C)C1` [methysergide]: the “effect on 5-hydroxytryptophan-stimulated PRL release” value with prolactin (PRL) release [7] (in man) is “partially inhibited”.
For `CN1C[C@H](CNC(=O)OCc2ccccc2)C[C@@H]2c3cccc4c3c(cn4C)C[C@H]21` [Metergoline, 1,6-Dimethyl-8β-carbobenzyloxy-aminomethyl-10α-ergoline], the ED50 in series [2] (ip) was 16 to 32 mg/kg; in [2] (po) it was around 25 mg/kg; in the series with lactation [3], 12.5 to 25 mg/kg. Moreover, the TD50 at 2 h in the series “Emetic activity in dogs” is above 8 mg/kg. Besides, the TD50 at 6 h in “Emetic activity in dogs” was 4 to 8 mg/kg. Also, in the series with emesis, the “emetic tolerability versus reference standard III” value is “clearly better tolerated than the reference standard III”. Also, the “women in whom five days of treatment prevented or suppressed lactation” value in the series on puerperal lactation [8] (8 mg/day (4 mg twice), 5 days) is given as 69 women. The “remaining women in whom a second course definitely inhibited every sign of mammary activity” value in the series with puerperal lactation [8] (8 mg/day, second course of 5 additional days) was 9 women. Besides, in the series on puerperal lactation [8] (5 days of treatment), the “cases in which the necessary treatment period is 5 days” value was determined as 88.5%. The treatment period necessary with puerperal lactation [8] (in 88.5% of cases) came to 5 days. Further, the tolerability / side-effects result with puerperal lactation [8] (women, 8 mg/day, in words) was “perfectly tolerated and devoid of any side-effect”.
Consider `CN1C[C@H](CNC(=O)OCc2ccccc2)C[C@@H]2c3cccc4[nH]cc(c34)C[C@H]21` [1-Demethyl-metergoline, 6-Methyl-8β-carbobenzyloxy-aminomethyl-10α-ergoline], for which the ED50 in series [2] (po) fell in the range of 4 to 8 mg/kg. Besides, the ED50 in the series with lactation [3] is 4 to 8 mg/kg. Further, in the series “Emetic activity in dogs”, the TD50 at 2 h was 0.05 to 0.1 mg/kg and the TD50 at 6 h lay within 0.2 to 0.4 mg/kg. Moreover, the “emetic tolerability versus reference standard III” value in the series on emesis is reported as “clearly better tolerated than the reference standard III”.
